In paper PMC11576293, “New series of 4,6-diaryl pyrimidines: facile synthesis and antiproliferative activity as dual EGFR/VEGFR-2 inhibitors” (Frontiers in Chemistry, 2024):

Assays:
Assay in all cases: NCI-60 single-dose screen
Format in all cases: cell-based
NCI-H322M = settings: Homo sapiens, single dose 10 µM, '-' = no inhibition, read-out: % Growth Inhibition
Method in brief: (§1)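 The NCI Developmental Therapeutics Program exposed each of 60 cancer cell lines, drawn from leukemia, lung, colon, CNS, melanoma, ovarian, renal, prostate and breast origins, to one concentration of compound (10 μM).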

A549/ATCC = settings: Homo sapiens, single dose 10 µM, '-' = no inhibition, read-out: % Growth Inhibition
Method in brief: as §1

A498 = settings: Homo sapiens, single dose 10 µM, '-' = no inhibition, read-out: % Growth Inhibition
Method in brief: as §1

DU-145 = settings: Homo sapiens, single dose 10 µM, '-' = no inhibition, read-out: % Growth Inhibition
Method in brief: as §1

HCT-15 = settings: Homo sapiens, single dose 10 µM, '-' = no inhibition, read-out: % Growth Inhibition
Method in brief: as §1

UO-31 = settings: Homo sapiens, single dose 10 µM, '-' = no inhibition, read-out: % Growth Inhibition
Method in brief: as §1

SK-MEL-28 = settings: Homo sapiens, single dose 10 µM, '-' = no inhibition, read-out: % Growth Inhibition
Method in brief: as §1

RXF 393 = settings: Homo sapiens, single dose 10 µM, '-' = no inhibition, read-out: % Growth Inhibition
Method in brief: as §1

TK-10 = settings: Homo sapiens, single dose 10 µM, '-' = no inhibition, read-out: % Growth Inhibition
Method in brief: as §1

OVCAR-5 = settings: Homo sapiens, single dose 10 µM, '-' = no inhibition, read-out: % Growth Inhibition
Method in brief: as §1

786-0 = settings: Homo sapiens, single dose 10 µM, '-' = no inhibition, read-out: % Growth Inhibition
Method in brief: as §1

HOP-92 = settings: Homo sapiens, single dose 10 µM, '-' = no inhibition, read-out: % Growth Inhibition
Method in brief: as §1

U251 = settings: Homo sapiens, U-251, single dose 10 µM, '-' = no inhibition, read-out: % Growth Inhibition
Method in brief: as §1

SK-OV-3 = settings: Homo sapiens, single dose 10 µM, '-' = no inhibition, read-out: % Growth Inhibition
Method in brief: as §1

SNB-75 = settings: Homo sapiens, single dose 10 µM, '-' = no inhibition, read-out: % Growth Inhibition
Method in brief: as §1

EKVX = settings: Homo sapiens, single dose 10 µM, '-' = no inhibition, read-out: % Growth Inhibition
Method in brief: as §1

NCI-H460 = settings: Homo sapiens, single dose 10 µM, '-' = no inhibition, read-out: % Growth Inhibition
Method in brief: as §1

SR = settings: Homo sapiens, single dose 10 µM, '-' = no inhibition, read-out: % Growth Inhibition
Method in brief: as §1

RPMI-8226 = settings: Homo sapiens, single dose 10 µM, '-' = no inhibition, read-out: % Growth Inhibition
Method in brief: as §1

UACC-62 = settings: Homo sapiens, single dose 10 µM, '-' = no inhibition, read-out: % Growth Inhibition
Method in brief: as §1

MDA-MB231/ATCC = settings: Homo sapiens, MDA-MB-231, single dose 10 µM, '-' = no inhibition, read-out: % Growth Inhibition
Method in brief: as §1

SF-539 = settings: Homo sapiens, single dose 10 µM, '-' = no inhibition, read-out: % Growth Inhibition
Method in brief: as §1

OVCAR-3 = settings: Homo sapiens, single dose 10 µM, '-' = no inhibition, read-out: % Growth Inhibition
Method in brief: as §1

SNB-19 = settings: Homo sapiens, single dose 10 µM, '-' = no inhibition, read-out: % Growth Inhibition
Method in brief: as §1

NCI-H522 = settings: Homo sapiens, single dose 10 µM, '-' = no inhibition, read-out: % Growth Inhibition
Method in brief: as §1

BT-549 = settings: Homo sapiens, single dose 10 µM, '-' = no inhibition, read-out: % Growth Inhibition
Method in brief: as §1

M14 = settings: Homo sapiens, single dose 10 µM, '-' = no inhibition, read-out: % Growth Inhibition
Method in brief: as §1

NCI-H23 = settings: Homo sapiens, single dose 10 µM, '-' = no inhibition, read-out: % Growth Inhibition
Method in brief: as §1

HOP-62 = settings: Homo sapiens, single dose 10 µM, '-' = no inhibition, read-out: % Growth Inhibition
Method in brief: as §1

MDA-MB-468 = settings: Homo sapiens, single dose 10 µM, '-' = no inhibition, read-out: % Growth Inhibition
Method in brief: as §1

LOX IMVI = settings: Homo sapiens, single dose 10 µM, '-' = no inhibition, read-out: % Growth Inhibition
Method in brief: as §1

COLO 205 = settings: Homo sapiens, single dose 10 µM, '-' = no inhibition, read-out: % Growth Inhibition
Method in brief: as §1

ACHN 1 = settings: Homo sapiens, single dose 10 µM, '-' = no inhibition, read-out: % Growth Inhibition
Method in brief: as §1

HL-60(TB) = settings: Homo sapiens, single dose 10 µM, '-' = no inhibition, read-out: % Growth Inhibition
PC-3 = settings: Homo sapiens, single dose 10 µM, '-' = no inhibition, read-out: % Growth Inhibition
Method in brief: as §1

MALME-3M = settings: Homo sapiens, single dose 10 µM, '-' = no inhibition, read-out: % Growth Inhibition
Method in brief: as §1

T-47D = settings: Homo sapiens, T47D, single dose 10 µM, '-' = no inhibition, read-out: % Growth Inhibition
Method in brief: as §1

HT29 = settings: Homo sapiens, HT-29, single dose 10 µM, '-' = no inhibition, read-out: % Growth Inhibition
Method in brief: as §1

SW-620 = settings: Homo sapiens, single dose 10 µM, '-' = no inhibition, read-out: % Growth Inhibition
Method in brief: as §1

KM12 = settings: Homo sapiens, single dose 10 µM, '-' = no inhibition, read-out: % Growth Inhibition
Method in brief: as §1

NCI/ADR-RES = settings: Homo sapiens, single dose 10 µM, '-' = no inhibition, read-out: % Growth Inhibition
Method in brief: as §1

OVCAR-4 = settings: Homo sapiens, single dose 10 µM, '-' = no inhibition, read-out: % Growth Inhibition
Method in brief: as §1

IGROV1 = settings: Homo sapiens, IGROV-1, single dose 10 µM, '-' = no inhibition, read-out: % Growth Inhibition
Method in brief: as §1

UACC-257 = settings: Homo sapiens, single dose 10 µM, '-' = no inhibition, read-out: % Growth Inhibition
Method in brief: as §1

MOLT-4 = settings: Homo sapiens, single dose 10 µM, '-' = no inhibition, read-out: % Growth Inhibition
Method in brief: as §1

SF-295 = settings: Homo sapiens, single dose 10 µM, '-' = no inhibition, read-out: % Growth Inhibition
Method in brief: as §1

CAKI-1 = settings: Homo sapiens, single dose 10 µM, '-' = no inhibition, read-out: % Growth Inhibition
Method in brief: as §1

C=CCSc1nc(-c2ccc(Cl)cc2)cc(-c2ccc(OC)c(OC)c2)n1 [Compound 27, 2-(Allylthio)-4-(4-chlorophenyl)-6-(3,4-dimethoxyphenyl)pyrimidine]
inhibition at 10 µM (NCI-H322M): < 0%
inhibition at 10 µM (A549/ATCC): 12.3%
inhibition at 10 µM (A498): < 0%
inhibition at 10 µM (DU-145): 2.02%
inhibition at 10 µM (HCT-15): 18.8%
inhibition at 10 µM (UO-31): 22.9%
inhibition at 10 µM (SK-MEL-28): < 0%
inhibition at 10 µM (RXF 393): 3.07%
inhibition at 10 µM (TK-10): < 0%
inhibition at 10 µM (OVCAR-5): < 0%
inhibition at 10 µM (786-0): 2.53%
inhibition at 10 µM (HOP-92): 10.6%
inhibition at 10 µM (U251): < 0%
inhibition at 10 µM (SK-OV-3): < 0%
inhibition at 10 µM (SNB-75): < 0%
inhibition at 10 µM (EKVX): 12.2%
inhibition at 10 µM (NCI-H460): 6.7%
inhibition at 10 µM (SR): 30.3%
inhibition at 10 µM (RPMI-8226): 14.3%
inhibition at 10 µM (UACC-62): 26%
inhibition at 10 µM (MDA-MB231/ATCC): 7.53%
inhibition at 10 µM (SF-539): < 0%
inhibition at 10 µM (OVCAR-3): < 0%
inhibition at 10 µM (SNB-19): 8.39%
inhibition at 10 µM (NCI-H522): 16.4%
inhibition at 10 µM (BT-549): 3.91%
inhibition at 10 µM (M14): 0.06%
inhibition at 10 µM (NCI-H23): 7.78%
inhibition at 10 µM (HOP-62): < 0%
inhibition at 10 µM (MDA-MB-468): 23.7%
inhibition at 10 µM (LOX IMVI): 7.11%
inhibition at 10 µM (COLO 205): < 0%
inhibition at 10 µM (ACHN 1): 6.5%
inhibition at 10 µM (HL-60(TB)): 29.2%
inhibition at 10 µM (PC-3): 15.7%
inhibition at 10 µM (MALME-3M): < 0%
inhibition at 10 µM (T-47D): 23.1%
inhibition at 10 µM (HT29): 22.6%
inhibition at 10 µM (SW-620): 1.7%
inhibition at 10 µM (KM12): 3.43%
inhibition at 10 µM (NCI/ADR-RES): 21.8%
inhibition at 10 µM (OVCAR-4): 10.3%
inhibition at 10 µM (IGROV1): < 0%
inhibition at 10 µM (UACC-257): < 0%
inhibition at 10 µM (MOLT-4): 28.5%
inhibition at 10 µM (SF-295): 3%
inhibition at 10 µM (CAKI-1): 13.1%

COc1ccc(-c2cc(-c3ccc(Cl)cc3)nc(SCc3ccccc3)n2)cc1OC [Compound 28, 2-(Benzylthio)-4-(4-chlorophenyl)-6-(3,4-dimethoxyphenyl)pyrimidine]
inhibition at 10 µM (NCI-H322M): < 0%
inhibition at 10 µM (A549/ATCC): 18.9%
inhibition at 10 µM (A498): 0.85%
inhibition at 10 µM (DU-145): 8.2%
inhibition at 10 µM (HCT-15): 27.6%
inhibition at 10 µM (UO-31): 24.8%
inhibition at 10 µM (SK-MEL-28): 4.01%
inhibition at 10 µM (RXF 393): < 0%
inhibition at 10 µM (TK-10): < 0%
inhibition at 10 µM (OVCAR-5): 6.33%
inhibition at 10 µM (786-0): 7.96%
inhibition at 10 µM (HOP-92): 0.63%
inhibition at 10 µM (U251): 13.1%
inhibition at 10 µM (SK-OV-3): 2.92%
inhibition at 10 µM (SNB-75): < 0%
inhibition at 10 µM (EKVX): 22.2%
inhibition at 10 µM (NCI-H460): 14.8%
inhibition at 10 µM (SR): 39.4%
inhibition at 10 µM (RPMI-8226): 24.3%
inhibition at 10 µM (UACC-62): < 0%
inhibition at 10 µM (MDA-MB231/ATCC): 23%
inhibition at 10 µM (SF-539): 17.8%
inhibition at 10 µM (OVCAR-3): < 0%
inhibition at 10 µM (SNB-19): 4.06%
inhibition at 10 µM (NCI-H522): 31.8%
inhibition at 10 µM (BT-549): 3.64%
inhibition at 10 µM (M14): 0.81%
inhibition at 10 µM (NCI-H23): 2.2%
inhibition at 10 µM (HOP-62): < 0%
inhibition at 10 µM (MDA-MB-468): 6.53%
inhibition at 10 µM (LOX IMVI): 8.32%
inhibition at 10 µM (COLO 205): 3.49%
inhibition at 10 µM (ACHN 1): 13.1%
inhibition at 10 µM (HL-60(TB)): 21.4%
inhibition at 10 µM (PC-3): 19%
inhibition at 10 µM (MALME-3M): < 0%
inhibition at 10 µM (T-47D): 33%
inhibition at 10 µM (HT29): 18.7%
inhibition at 10 µM (SW-620): 2.79%
inhibition at 10 µM (KM12): 23.2%
inhibition at 10 µM (NCI/ADR-RES): 14.3%
inhibition at 10 µM (OVCAR-4): 21.5%
inhibition at 10 µM (IGROV1): < 0%
inhibition at 10 µM (UACC-257): 15.3%
inhibition at 10 µM (MOLT-4): 32.8%
inhibition at 10 µM (SF-295): 7.84%
inhibition at 10 µM (CAKI-1): 25.7%
